Data on 8 molecules can be found in patent publication US9107411B2, “Indolecarboxamides and benzimidazolecarboxamides as insecticides and acaricides” (BAYER INTELLECTUAL PROPERTY GMBH, priority 2011, dated 2015).

The test system of series [1] is Lucilia cuprina larvae. Kind of series: Lucilia cuprina test (LUCICU). In kind it is in vivo. The settings on record: application rate 100 ppm; treated horse meat; after 2 days. On the procedure: Lucilia cuprina Test (LUCICU) Solvent: dimethyl sulphoxide To prepare an appropriate active ingredient formulation, 10 mg of active ingredient are mixed with 0.5 ml of dimethyl sulphoxide and the concentrate is diluted with water to the desired concentration. Vessels containing horse meat treated with the active ingredient formulation of the desired concentration are populated with about 20 Lucilia cuprina larvae. After 2 days, the kill in % is determined. 100% means that all of the larvae have been killed; 0% means that none of the larvae have been killed.

The test system of series [2] is adult Musca domestica. Kind of series: Musca domestica test (MUSCDO). In kind it is in vivo. To be noted: application rate 100 ppm; treated sponge; after 2 days. On the procedure:
Musca domestica Test (MUSCDO) Solvent: dimethyl sulphoxide To prepare an appropriate active ingredient formulation, 10 mg of active ingredient are mixed with 0.5 ml of dimethyl sulphoxide and the concentrate is diluted with water to the desired concentration. Vessels containing a sponge treated with the active ingredient formulation of the desired concentration are populated with adult Musca domestica. After 2 days, the kill in % is determined 100% means that all of the flies have been killed; 0% means that none of the flies have been killed.

The subject of series [3] is Spodoptera frugiperda. The experiment in a line: Spodoptera frugiperda test (SPODFR spray treatment). The settings on record: application rate 100 g/ha; maize leaf discs; after 7 days. Format: in vivo. In short, it runs like this: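 Mortality read-out at 7 days, given as % efficacy, where 100% means every caterpillar dead and 0% none. Caterpillars were placed on dried maize leaf discs that had been sprayed with test formulation. That formulation was an acetone/dimethylformamide concentrate diluted in emulsifier-containing water.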

The subject of series [4] is Phaedon cochleariae. Kind of series: Phaedon test (PHAECO spray treatment). In kind it is in vivo. To be noted: application rate 100 g/ha, Chinese cabbage leaf discs, after 7 days. In short, it runs like this: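 Larval mortality was assessed 7 days after Phaedon cochleariae larvae were placed on dried, spray-treated Brassica pekinensis leaf discs. The formulation was an acetone/dimethylformamide concentrate with alkylaryl polyglycol ether emulsifier, diluted in emulsifier-containing water. Results are given as % kill, from 0 (no larvae dead) to 100 (all dead).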

Series [5] relates to Tetranychus urticae. The experiment in a line: Tetranychus test, OP-resistant (TETRUR spray treatment). In kind it is in vivo. To be noted: bean leaf discs, after 6 days. The method, boiled down: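 Bean leaf discs infested with all stages of OP-resistant T. urticae sprayed with compound formulated in acetone/DMF plus alkylaryl polyglycol ether emulsifier, diluted in water. Efficacy (% mites killed) scored after 6 days.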

The test system of series [6] is Ctenocephalides felis. The experiment in a line: Ctenocephalides felis oral (CTECFE). In kind it is in vivo. The settings on record: application rate 100 ppm in citrated cattle blood; after 2 days. The method, then:
Ctenocephalides felis Oral ([…]) Solvent: 1 part by weight of dimethyl sulphoxide For the purpose of preparing an appropriate active ingredient formulation, 10 mg of active ingredient are mixed with 0.5 ml of dimethyl sulphoxide. A portion of the concentrate is diluted with citrated cattle blood, and the desired concentration is prepared. About 20 unfed adult fleas (Ctenocephalides felis) are placed into a chamber which is closed at the top and bottom with gauze. A metal cylinder whose bottom end is closed with Parafilm is placed onto the chamber. The cylinder contains the blood/active ingredient formulation, which can be imbibed by the fleas through the Parafilm membrane. After 2 days, the kill in % is determined 100% means that all of the fleas have been killed; 0% means that none of the fleas have been killed.

The test system of series [7] is Boophilus microplus. Kind of series: Boophilus microplus test (BOOPMI injection). In kind it is in vivo. The settings on record: application rate 20 μg/animal; injected into the abdomen; after 7 days. The method, then: Boophilus microplus Test (BOOPMI Injection) Solvent: dimethyl sulphoxide To prepare an appropriate active ingredient formulation, 10 mg of active ingredient are mixed with 0.5 ml of solvent and the concentrate is diluted with solvent to the desired concentration. The active ingredient solution is injected into the abdomen (Boophilus microplus), and the animals are transferred into dishes and stored in a climate-controlled room. After 7 days, the efficacy in % is determined. The activity is assessed by laying of fertile eggs. 100% means that none of the ticks has laid any fertile eggs.

Series [8] is described as follows: logP (HPLC-MS). Format: physicochemical.
Setting [9] is: HPLC, reversed-phase column (C18), acidic range pH 2.7, acetonitrile (0.1% formic acid)/water gradient, 43° C., calibration with unbranched alkan-2-ones.

Like-named read-outs stand apart in the source and are kept apart here.

For the molecule `CCn1c(C(=O)NC(c2ccc(F)c(C(F)(F)F)c2)C(F)(F)F)cc2cc(C(=O)NC3(C#N)CC3)c(Cl)cc21` (stereo not shown) [Compound 16], the “efficacy (kill in %)” value in series [1], in series [2] and in series [6] was 100% throughout. The efficacy in % in series [3], in series [4] and in series [5] (application rate 100 g/ha) was 100% throughout. Also, in series [7], the “efficacy (laying of fertile eggs)” value worked out at 100%. This molecule had a log p in series [8] (setting [9]) of 3.88.
For the molecule `CCn1c(C(=O)NC(c2ccc(F)c(C(F)(F)F)c2)C(F)(F)F)cc2cc(C(=O)NC3CC3)c(Cl)cc21` (stereo not shown) [Compound 3], the “efficacy (kill in %)” value in series [1], in series [2] and in series [6] was 100% in each case. In addition, the efficacy in % in series [3], in series [4] and in series [5] (application rate 500 g/ha) was 100% each time. Further, the “efficacy (laying of fertile eggs)” value in series [7] is 100%. The log p in series [8] (setting [9]) stood at 3.93.
As for `Cn1c(C(=O)NC(c2ccc(F)c(C(F)(F)F)c2)C(F)(F)F)cc2cc(C(=O)NC3CC3)c(Cl)cc21` (stereo not shown) [Compound 49], the “efficacy (kill in %)” value in series [1] worked out at 100%; in series [2], 100%; in series [6] it was 98%. The efficacy in % in series [3], in series [4] and in series [5] (application rate 100 g/ha) was 100% in each case. The “efficacy (laying of fertile eggs)” value in series [7] is recorded as 100%. Also, in series [8] (setting [9]), the log p came out at 3.70.
`CCn1c(C(=O)NC(c2ccc(F)c(C(F)(F)F)c2)C(F)(F)F)cc2cc(C(=O)NC3CC3)c(C)cc21` (stereo not shown) [Compound 188]: the “efficacy (kill in %)” value in series [1], in series [2] and in series [6] was 100% in each case. Moreover, the efficacy in % in series [3], in series [4] and in series [5] (application rate 100 g/ha) was 100% in each case. The “efficacy (laying of fertile eggs)” value in series [7] stood at 100%. The log p in series [8] (setting [9]) turned out to be 3.76.
`CCn1c(C(=O)NC(c2cc(Cl)cc(Cl)c2)C(F)(F)F)cc2cc(C(=O)NC3(C#N)CC3)c(C)cc21` (stereo not shown) [Compound 195]: the “efficacy (kill in %)” value in series [1], in series [2] and in series [6] was 100% each time. Also, the efficacy in % in series [3], in series [4] and in series [5] (application rate 100 g/ha) was 100% throughout. Further, the “efficacy (laying of fertile eggs)” value in series [7] is on record as 100%. Besides, the log p in series [8] (setting [9]) is 4.09.
Consider `CCn1c(C(=O)NC(c2cccc(C(F)(F)F)c2)C(F)(F)F)cc2cc(C(=O)NC(C)(C)C#N)c(Cl)cc21` (stereo not shown) [Compound 15], for which the “efficacy (kill in %)” value in series [1], in series [2] and in series [6] was 100% in each case. Moreover, the efficacy in % in series [3] and in series [4] was 100% each time. Besides, the “efficacy (laying of fertile eggs)” value in series [7] is 100%. This molecule also showed a log p in series [8] (setting [9]) of 3.89.
For the molecule `CCn1c(C(=O)NC(c2ccc(F)c(C(F)(F)F)c2)C(F)(F)F)cc2cc(C(=O)NCC(F)F)c(Cl)cc21` (stereo not shown) [Compound 19, 6-chloro-N^5-(2,2-difluoroethyl)-1-ethyl-N^2-{2,2,2-trifluoro-1-[4-fluoro-3-(trifluoromethyl)phenyl]ethyl}-1H-indole-2,5-dicarboxamide], the “efficacy (kill in %)” value in series [1], in series [2] and in series [6] was 100% each time. In addition, the pest or weed control at 100 g/ha in series [4] (Phaedon cochleariae, foliar, 168 h, read-out: efficacy in %) is 100%. Moreover, in series [7], the “efficacy (laying of fertile eggs)” value is recorded as 100%. Besides, the chromatographic logP in series [8] (HPLC, reversed-phase column (C18), acidic range pH 2.7, acetonitrile (0.1% formic acid)/water gradient, 43° C., calibration with unbranched alkan-2-ones, read-out: log p) was 4.03; in series [8] (HPLC-MS), 5.16.
In the case of `CCn1c(C(=O)NC(c2cccc(C(F)(F)F)c2)C(F)(F)F)cc2cc(C(=O)NCC(C)(F)F)c(Cl)cc21` (stereo not shown) [Compound 10], the “efficacy (kill in %)” value in series [1] was found to be 100%; in series [2], 100%; in series [6] it was 95%. Also, the efficacy in % in series [3] came to 83%; in series [4], 100%. Further, in series [7], the “efficacy (laying of fertile eggs)” value is 100%. In addition, in series [8] (setting [9]), the log p is 4.06.
